Measurements from patent US8445281B2, “In vitro exposure of immature oocytes to BDNF enhances generation of embryonic stem cells” (The Board of Trustees of the Leland Stanford Junior …, priority 2006, dated 2013).

B1: BDNF: recombinant human BDNF (Pepro-Tech), neurotrophin, ligand of TrkB (protein)
chain: MTILFLTMVISYFGCMKAAPMKEANIRGQGGLAYPGVRTHGTLESFTVNGPKAGSRGLTSLADTFEHVIEELLDEDQKVRPNEENNKDADLYTSRVMLSSQVPLEPFTPLLFLLEEYKNYLDAANMSMRVRRHSDPARRGELSVCDSISEWVTAADKKTAVDMSGGTFTVTVLEKVPVSKGQLKQYFYETKCNPMGYTKEGCRGIDKRHWNSQCRTTQSYVRALTMDSFTKKRIGWRFIRIDTSCVCTLTIKRGR
modifications: human
notes: recombinant human BDNF (Pepro-Tech), neurotrophin, ligand of TrkB
B2: NGF: mouse nerve growth factor (R & D Systems) (protein, UniProt P01139 122-241, looked up)
Beta-nerve growth factor: SSTHPVFHMGEFSVCDSVSVWVGDKTTATDIKGKEVTVLAEVNINNSVFRQYFFETKCRASNPVESGCRGIDSKHWNSYCTTTHTFVKALTTDEKQAAWRFIRIDTACVCVLSRKATRRG
B3: NT-3: human neurotrophin-3 (R & D Systems) (protein, UniProt P20783 139-257, looked up)
Neurotrophin-3: YAEHKSHRGEYSVCDSESLWVTDKSSAIDIRGHQVTVLGEIKTGNSPVKQYFYETRCKEARPVKNGCRGIDDKHWNSQCKTSQTYVRALTSENNKLVGWRWIRIDTSCVCALSRKIGRT

Legend:
Trk receptor [1] = test: In vivo first polar body extrusion by ovulated oocytes; set-up: species or system mouse; conditions: PMSG-primed mice, hCG with i.p. compound, 12 h after hCG
Protocol: (§1) In Vivo Analysis. […] For negative controls, the plasma membrane nonsoluble K252b was used. Twelve hours after hCG injection, ovulated COCs were obtained from the oviducts. After treatment with hyaluronidase (Specialty Media) for 1-2 min, oocytes were separated from cumulus cells and the proportion of oocytes showing first polar body extrusion was evaluated. To evaluate the role of BDNF in the conditioning of oocytes for early embryo development, immature mice were treated with PMSG, followed by hCG as described above. […] Fertilized oocytes were separated from cumulus cells, washed three times in M2 medium, and cultured for 5 days in modified M16 medium. Embryonic development was monitored daily, and the progression of fertilized eggs into preimplantation embryos was assessed.

[2] = system: oocytes (cumulus oocyte complexes); test: First polar body extrusion by oocytes in cultured COCs; assay type: cell-based, mouse; conditions: for effect on the stimulatory effect of BDNF on first polar body extrusion: COCs, cotreatment with BDNF; for first polar body extrusion in cultured oocytes: COCs cultured 20 h without FBS, NGF and NT-3 at 10 ng/ml
Protocol: Evaluation of First Polar Body Extrusion. For evaluating the transition from metaphase I stage to metaphase II (MII) stage oocytes, COCs were obtained from mouse ovaries 48 h after PMSG treatment by puncturing the largest follicles in M2 medium (Specialty Media, Phillipsburg, N.J.). COCs were washed twice, transferred to modified M16 medium (Specialty Media) without FBS, and cultured with or without different doses of BDNF, mouse nerve growth factor (NGF; R & D Systems), or human neurotrophin-3 (NT-3) (R & D Systems) for 20 h at 37° C. in 5% CO2/95% air. Some COCs were also cultured with BDNF with or without the TrkB ectodomain (R & D Systems), pan-specific Trk receptor inhibitor K252a (Calbiochem), or K252b. The occurrence of first polar body extrusion in the oocyte was examined after removing cumulus cells by using a small-bore pipette under Hoffman contrast microscopy (Nikon).

Trk receptor [3] = test: In vivo treatment, progression of zygotes into blastocysts in vitro; set-up: species or system mouse; conditions: 10 μg i.p. at 0, 4, 8 h after hCG; for decrease in number of cells in the blastocysts / suppression of development of zygotes into blastocyst stage embryos: fertilized oocytes cultured 5 days
Protocol: as §1

[4] = system: oocytes of preovulatory follicles; test: Preovulatory follicle culture, GVBD of oocytes; assay type: cell-based, mouse; conditions: cultured preovulatory follicles
Protocol: Follicle Cultures. Preovulatory follicles were excised from mouse ovaries 48 h after PMSG treatment and cultured to examine nuclear maturation of oocytes (Kawamura et al. (2004) Proc. Natl. Acad. Sci. USA 101, 7323-7328). […] The vials were flushed at the start of the culture with O2/N2 (at a 1:1 ratio), sealed, and cultured at 37° C. with gentle shaking for 6 h. After culture, cumulus oocyte complexes (COCs) were isolated, and, after cumulus cells were removed, oocytes were examined for the occurrence of GVBD.

[5] = system: oocytes (cumulus oocyte complexes); test: In vitro maturation, fertilization and early embryonic development; assay type: cell-based, mouse
Protocol: In Vitro Maturation, Fertilization, and Early Embryonic Development. We performed in vitro maturation of oocytes followed by in vitro fertilization as previously described, with slight modifications. COCs from PMSG-primed mice were obtained in the M2 medium supplemented with 5% FBS before culturing in minimum essential media-α (Invitrogen) supplemented with Earle's salts, 10 μg/ml streptomycin sulfate, 75 μg/ml penicillin G, and 5% FBS in the presence or absence of 3 ng/ml BDNF at 37° C. in 5% CO2/95% air. After 16 h of treatment, cumulus cells were removed and the oocytes were examined and classified according to their developmental stage (germinal vesicle, metaphase I, or MII). MII-stage oocytes were inseminated with sperm from B6D2F1 males and incubated for 4 h at 37° C. in 5% CO2/95% air. After in vitro fertilization, fertilized oocytes were recovered, washed three times, and cultured in human tubal fluid medium (Specialty Media). The following morning, two-cell stage embryos were collected and cultured in 2 ml of modified M16 medium for 5 days more up to the blastocyst stage at 37° C. in 5% CO2/95% air. Embryonic development was monitored daily by Hoffman modulation contrast microscopy, and the progression of fertilized eggs to preimplantation embryos was assessed.

MII oocytes = test: Glutathione content in oocytes; assay type: cell-based, mouse; conditions: COCs treated 16 h
Protocol: FIGS. 4A-E depict BDNF conditioning of oocytes for development into preimplantation embryos. FIG. 4A is a bar graph indicating the percentage of MII oocytes that developed to two-cell or blastocyst-stage embryos. Specifically, COCs obtained from preovulatory follicles were cultured without (control) or with BDNF (3 ng/ml) for 16 h. After progression to the MII stage, oocytes were inseminated and cultured for 5 days more without hormones. The percentage of MII oocytes that developed to two-cell or blastocyst-stage embryos were evaluated (n=5, 34-95 oocytes per experiment). FIG. 4B indicates the effects of BDNF treatment on glutathione (GSH) content in oocytes. After treatment of COCs for 16 h without (control, C) or with BDNF, glutathione levels in oocytes at MII oocytes were evaluated (mean±SEM, n=6). FIG. 4C depicts the effects of K252a treatment in vivo on the progression of zygotes into blastocysts in vitro. […] After initial injection, mice were allowed to mate with fertile males. Fertilized oocytes were cultured for 5 days, and the number of blastocyst embryos was evaluated. FIG. 4D depicts the effects of K252a treatment on the number of cells in the blastocysts. […]
Because the oocyte content of glutathione is important to sperm nuclear decondensation, the glutathione concentration in oocytes also was evaluated. […]

[6] = pretreatment 3 ng/ml BDNF 16 h, then in vitro fertilization without BDNF

Molecule | inhibition of first polar body extrusion by ovulated oocytes (Trk receptor [1]) | number of ovulated oocytes per animal (Trk receptor [1]) | effect on the stimulatory effect of BDNF on first polar body extrusion [2] | decrease in number of cells in the blastocysts (Trk receptor [3]) | suppression of development of zygotes into blastocyst stage embryos (Trk receptor [3]) | first polar body extrusion in cultured oocytes [2] | further results
COC(=O)[C@@]1(O)C[C@H]2O[C@]1(C)n1c3ccccc3c3c4c(c5c6ccccc6n2c5c31)C(=O)NC4 [K252a] | 30% | 37.8±5.3 | suppressed | 51% | 72% | – | number of fertilized oocytes vs control (Trk receptor [3]; oocytes collected 22 h after hCG): did not differ
CC12OC(CC1(O)C(=O)O)n1c3ccccc3c3c4c(c5c6ccccc6n2c5c31)C(=O)NC4 (stereo not shown) [K252b] | ineffective | 38.4±8.7 | not | not | ineffective | – | –
TrkB ectodomain: TrkB ectodomain (R & D Systems), antagonises BDNF stimulation | – | – | blocked | – | – | ineffective | –
B1 | – | – | – | – | – | increased | cumulus cell expansion [4]: did not induce; induction of GVBD in oocytes ([4]; 6 h, 5 μg/ml LH or BDNF): not and lack of effect; increase in proportion of oocytes showing first polar body extrusion (MII-stage oocytes) ([5]; COCs, 3 ng/ml BDNF, 16 h, 5% FBS): more than 2 fold; increase in proportion of MII oocytes that developed into blastocyst-stage embryos [5, 6]: 5 fold; increase in proportion of MII oocytes that developed into two-cell embryos [5, 6]: 2 fold; glutathione content in MII oocytes (MII oocytes): increased
B2 | – | – | – | – | – | not | –
B3 | – | – | – | – | – | not | –
